Experimental data published in the NIST ThermoML archive (doi:10.1016/j.tca.2013.06.031).
Numbers after ± are expanded uncertainties.

Test: mn = molality of the nth substance listed, in mol/kg
Settings: 101 kPa, Liquid; for viscosity: Capillary tube (Ostwald / Ubbelohde) method; for mass density: Vibrating tube method

CO/N=C(\C(=O)N[C@@H]1C(=O)N2C(C(=O)[O-])=C(CSc3nc(C)c(CC(=O)[O-])s3)CS[C@H]12)c1csc(N)n1.[Na+].[Na+] + O
Settings | mass density [kg/m3] | viscosity [mPa·s]
278.15 K, m1 = 0.01 | 1002.35 ± 0.23 | 1.551 ± 0.015
278.15 K, m1 = 0.03 | 1006.68 ± 0.21 | 1.609 ± 0.015
278.15 K, m1 = 0.05 | 1010.63 ± 0.2 | 1.667 ± 0.016
278.15 K, m1 = 0.07 | 1014.39 ± 0.19 | 1.724 ± 0.016
278.15 K, m1 = 0.09 | 1018.03 ± 0.19 | 1.783 ± 0.017
278.15 K, m1 = 0.11 | 1021.6 ± 0.19 | 1.839 ± 0.017
278.15 K, m1 = 0.13 | 1025.13 ± 0.18 | 1.9 ± 0.018
278.15 K, m1 = 0.15 | 1028.54 ± 0.18 | 1.962 ± 0.018
283.15 K, m1 = 0.01 | 1002.07 ± 0.23 | 1.33 ± 0.013
283.15 K, m1 = 0.03 | 1006.36 ± 0.21 | 1.381 ± 0.013
283.15 K, m1 = 0.05 | 1010.27 ± 0.2 | 1.431 ± 0.014
283.15 K, m1 = 0.07 | 1014 ± 0.19 | 1.479 ± 0.014
283.15 K, m1 = 0.09 | 1017.61 ± 0.19 | 1.529 ± 0.015
283.15 K, m1 = 0.11 | 1021.14 ± 0.18 | 1.577 ± 0.015
283.15 K, m1 = 0.13 | 1024.59 ± 0.18 | 1.63 ± 0.016
283.15 K, m1 = 0.15 | 1027.97 ± 0.18 | 1.682 ± 0.016
288.15 K, m1 = 0.01 | 1001.45 ± 0.22 | 1.153 ± 0.011
288.15 K, m1 = 0.03 | 1005.68 ± 0.21 | 1.197 ± 0.011
288.15 K, m1 = 0.05 | 1009.58 ± 0.2 | 1.24 ± 0.012
288.15 K, m1 = 0.07 | 1013.27 ± 0.19 | 1.282 ± 0.012
288.15 K, m1 = 0.09 | 1016.85 ± 0.18 | 1.326 ± 0.013
288.15 K, m1 = 0.11 | 1020.33 ± 0.18 | 1.367 ± 0.013
288.15 K, m1 = 0.13 | 1023.74 ± 0.18 | 1.413 ± 0.013
288.15 K, m1 = 0.15 | 1027.06 ± 0.17 | 1.458 ± 0.014
293.15 K, m1 = 0.01 | 1000.53 ± 0.22 | 1.016 ± 0.0095
293.15 K, m1 = 0.03 | 1004.71 ± 0.21 | 1.055 ± 0.0099
293.15 K, m1 = 0.05 | 1008.6 ± 0.2 | 1.094 ± 0.01
293.15 K, m1 = 0.07 | 1012.24 ± 0.19 | 1.13 ± 0.01
293.15 K, m1 = 0.09 | 1015.8 ± 0.2 | 1.169 ± 0.011
293.15 K, m1 = 0.11 | 1019.24 ± 0.18 | 1.206 ± 0.011
293.15 K, m1 = 0.13 | 1022.59 ± 0.18 | 1.246 ± 0.011
293.15 K, m1 = 0.15 | 1025.89 ± 0.17 | 1.285 ± 0.012
298.15 K, m1 = 0.01 | 999.36 ± 0.22 | 0.9017 ± 0.0084
298.15 K, m1 = 0.03 | 1003.52 ± 0.21 | 0.9359 ± 0.0087
298.15 K, m1 = 0.05 | 1007.36 ± 0.19 | 0.9694 ± 0.009
298.15 K, m1 = 0.07 | 1010.99 ± 0.19 | 1.002 ± 0.0093
298.15 K, m1 = 0.09 | 1014.51 ± 0.18 | 1.036 ± 0.0096
298.15 K, m1 = 0.11 | 1017.91 ± 0.18 | 1.069 ± 0.0098
298.15 K, m1 = 0.13 | 1021.27 ± 0.18 | 1.104 ± 0.01
298.15 K, m1 = 0.15 | 1024.52 ± 0.17 | 1.14 ± 0.01
303.15 K, m1 = 0.01 | 997.94 ± 0.22 | 0.8062 ± 0.0075
303.15 K, m1 = 0.03 | 1002.05 ± 0.2 | 0.8369 ± 0.0078
303.15 K, m1 = 0.05 | 1005.88 ± 0.19 | 0.8669 ± 0.008
303.15 K, m1 = 0.07 | 1009.48 ± 0.18 | 0.8964 ± 0.0083
303.15 K, m1 = 0.09 | 1012.96 ± 0.18 | 0.9263 ± 0.0085
303.15 K, m1 = 0.11 | 1016.34 ± 0.18 | 0.9559 ± 0.0088
303.15 K, m1 = 0.13 | 1019.64 ± 0.17 | 0.9862 ± 0.009
303.15 K, m1 = 0.15 | 1022.89 ± 0.17 | 1.019 ± 0.0093
308.15 K, m1 = 0.01 | 996.31 ± 0.22 | 0.7252 ± 0.0068
308.15 K, m1 = 0.03 | 1000.43 ± 0.2 | 0.7532 ± 0.007
308.15 K, m1 = 0.05 | 1004.18 ± 0.19 | 0.7799 ± 0.0072
308.15 K, m1 = 0.07 | 1007.75 ± 0.18 | 0.8066 ± 0.0074
308.15 K, m1 = 0.09 | 1011.2 ± 0.18 | 0.8336 ± 0.0076
308.15 K, m1 = 0.11 | 1014.55 ± 0.18 | 0.8594 ± 0.0079
308.15 K, m1 = 0.13 | 1017.85 ± 0.17 | 0.8867 ± 0.0081
308.15 K, m1 = 0.15 | 1021.04 ± 0.17 | 0.9172 ± 0.0083
313.15 K, m1 = 0.01 | 994.47 ± 0.22 | 0.6576 ± 0.0062
313.15 K, m1 = 0.03 | 998.57 ± 0.2 | 0.682 ± 0.0064
313.15 K, m1 = 0.05 | 1002.27 ± 0.19 | 0.707 ± 0.0066
313.15 K, m1 = 0.07 | 1005.83 ± 0.18 | 0.7314 ± 0.0068
313.15 K, m1 = 0.09 | 1009.24 ± 0.18 | 0.7559 ± 0.007
313.15 K, m1 = 0.11 | 1012.57 ± 0.17 | 0.7783 ± 0.0072
313.15 K, m1 = 0.13 | 1015.83 ± 0.17 | 0.8042 ± 0.0074
313.15 K, m1 = 0.15 | 1018.99 ± 0.17 | 0.8303 ± 0.0077
